# Experimental data from US20040151618A1, “Method of increasing the conductivity of water and uses therefor” (priority 2002, published 2004).
# How the values were obtained:
# mold [1] = assay: Mold and odor on treated wet lap pulp (Example 5); assay type: cell-based; settings: wet lap pulp treated with water with 1% sodium benzoate, almost a year
# Source text: A like portion of wet lap pulp from the same batch as the above wet lap pulp was not treated (wet lap pulp is moist and contains tap water) but was isolated for observation and comparison.
# mold [2] = assay: Mold on dry dog food sprayed with solution (Example 4); assay type: cell-based; settings: dry dog food sprayed with water with 1% sodium benzoate, three months
# mold [3] = assay: Mold in opened cranberry-raspberry drink (Example 6); assay type: cell-based; settings: drink with about 1.9% sodium benzoate, three weeks
# Method: A commercially available 16 ounce bottle of cranberry-raspberry drink was opened and one ounce of water having a 30% concentrations of sodium benzoate was added to the contents of the bottle. The resulting cranberry-raspberry drink thus had about a 1.9% concentration of sodium benzoate. A second bottle of the same commercially available drink was opened but not treated in any way.
# [4] = tested on: psychrotrophic microorganisms; assay: Count of psychrotrophic microorganisms in minced cod fish fillets stored at 1-2° C. (Plate Count Agar, pour-plate); assay type: cell-based; parameters: Count of psychrotrophic microorganisms in sample with 0.1% Sodium Benzoate solution: unit not given here; settings: for Count of psychrotrophic microorganisms in sample with 1% Sodium Benzoate solution: Example 11; for Count of psychrotrophic microorganisms in sample with 0.1% Sodium Benzoate solution: Example 12
# Method: Cod fish fillets which were frozen at sea were thawed and minced. The minced fillets were divided into two 200 gram portions. To one portion, 20 milliliters of sterile, deionized water was added (10%) and to the other 20 milliliters of the sodium benzoate solution of this invention containing 1% benzoate was added. Both portions were stirred and then placed at 1-2° C. for storage. Samples were taken 2 hours, 7 days and 14 days after mixing. Counts of psychrothrophic microorganisms was done on Plate Count Agar with 0.5% NaCl added by the pour-plate technique. Plated were incubated at 22° C. for 3 days prior to counting colonies. When a nutrient agar-type medium is incubated, using the streak-plate or pour-plate method, cells are individually separated. In incubation, individual cells reproduce rapidly to generate a visible colony of cells, each colony being a pure sample of a single kind of microorganism.
# In the above example, a 1% sodium benzoate solution was used, which is considered to be a stronger than acceptable for a food product, and thus a further tests were performed. In these second tests cod fish fillets which were frozen at sea were thawed and minced. The minced fillets were divided into two 200 gram portions. To one portion, 2 milliliters of sterile, deionized water was added and to the other […] of the sodium benzoate solution of this invention containing 0.1% benzoate was added. As a result in this test the other portion contained only 10% of the amount of benzoate as was in EXAMPLE 11. In other words EXAMPLE 11 was a 1% sodium benzoate solution and EXAMPLE 12 is a 0.1% sodium benzoate solution. Both portions were stirred and then placed at 1-2° C. for storage. Samples were taken 2 hours, 7 days, 14 days and 18 after mixing. Counts of psychrothrophic microorganisms was done on Plate Count Agar with 0.5% NaCI added by the pour-plate technique. Plated were incubated at 22° C. for 3 days prior to counting colonies.
# mold [5] = assay: Mold on cornstarch immersed in solution (Example 3); assay type: cell-based; settings: cornstarch in water with 1% sodium benzoate, four weeks
# [6] = Iron count of applicant after daily drinking of the solution; assay type: in vivo, human; settings: daily drinking of 0.1% solution blended in fruit juice
# Source text: Furthermore, as a result of the higher conductivity of the sodium benzoate solution its electrical resistance is reduced which stabilizes organic colors and prevents their reversion. […] Also, in the pulp and paper industry the brightness of pulp is enhanced which is a result of applicant's solution impeding the deposition of iron. Also, impeding the iron content in drinking water can help to prevent an iron overload problem in humans and animals. Iron overload can result in cellular degradation that is similar to the rusting of a nail. Applicant's sodium benzoate solution can be used to prevent oxygen free radical degradation in humans and animals. Excess iron in human is very dangerous. Human consumption of applicant's solution could prevent hemochromatosis and the need for phlebotomy.
# [7] = Electrical conductivity of tap water with varying concentrations of sodium benzoate; assay type: physicochemical; settings: 10% sodium benzoate plus ingredient that improves adhesion
# Method: Tests were conducted to measure the electrical conductivity of tap water with varying concentrations of sodium benzoate. In these tests the conductivity has been measured in micromho/cm. One micromho/cm (UMHO/CM) equals one microsiemens/cm (US/CM). In other words a micromho is the same as a microsiemen.
# In preparing a 1% solution of applicants solution 37.84 grams of sodium benzoate were dissolved in one gallon of tap water which weighs 3,784 grams. […] The conductivity of the various samples of applicant's invention that were subjected to these tests had conductivities ranging from 635 to 34,500 UMHO/CM. […] For solutions of other strengths, proportional amounts of sodium benzoate were added to a gallon of water. This invention is concerned with concentrations of sodium benzoate in the range of about 0.1% and greater. The current test results have been limited to a maximum concentration of about 10%.
# [8] = tested on: large potted plants having green leaves and red flowers; assay: Plant growth retarder: large potted plants watered (Example 10); assay type: in vivo; settings: watered with water with 10% by weight sodium benzoate
# Source text: Three large potted plants having green leaves and red flowers, each plant was about 3 feet tall, were utilized for this EXAMPLE. The three plants were aligned adjacent to each other in a sunny area. The large potted plant to the left was watered with tap water and the plants in the center and to the right were watered with water having a 10% concentration by weight of sodium benzoate. Two days after watering these three large potted plants, the plant to the left retained its green leaves and red flowers. However, the large plant in the center and the one to the right had undergone change. […] Four days after watering the plants the large plant in the center and the one to the right had undergone further change. […] The plant to the left retained its green leaves and red flowers.
# [9] = tested on: growing plant having green leaves and small white flowers; assay: Plant growth retarder: isolated growing plant sprayed (Example 7); assay type: in vivo; settings: sprayed with water with 10% sodium benzoate, after six hours
# Source text: A growing plant having green leaves and small white flowers was isolated from other plants of the same type. the isolated plant was sprayed with water having a 10% concentration of sodium benzoate. The other plants were not treated.
# grass = assay: Plant growth retarder: patch of grass sprayed (Example 9); assay type: in vivo; settings: sprayed with water with 10% by weight sodium benzoate, 24 hours
# Source text: A patch of grass about two feet in diameter was sprayed with water having a 10% concentration by weight of sodium benzoate . At the time that the water having the 10% concentration of sodium benzoate was sprayed on this patch of grass the sprayed patch as well as the surrounding grass areas were green and healthy looking.
# [10] = tested on: potted plants each having green leaves and violet colored flowers; assay: Plant growth retarder: potted plant watered (Example 8); assay type: in vivo; settings: watered with water with 10% sodium benzoate, after three days
# Source text: Two similar potted plants each having green leaves and violet colored flowers were obtained for this example. One of the potted plants was watered with tap water and at the same time the other potted plant was watered with water that contained a 10% concentration of sodium benzoate.
# [11] = 0 days at 1-2° Centigrade (sample 2 hours after mixing)
compound,measurement,setting,value
"O=C([O-])c1ccccc1.[Na+] [Sodium Benzoate, sodium benzoate]",No Mold,mold [1],no evidence of mold or odor
same,No Mold,mold [2],no evidence of mold
same,No Mold,mold [3],no evidence of mold
same,Shelf life of fresh seafood maintained at 1-2° C.,[4]; 0.1% sodium benzoate solution,at least 14 days
same,Shelf life of fresh seafood maintained at 1-2° C.,[4]; 1% sodium benzoate solution,at least 14 days
same,Count of psychrotrophic microorganisms in sample with 1% Sodium Benzoate solution,[4]; [11],5
same,Count of psychrotrophic microorganisms in sample with 1% Sodium Benzoate solution,[4]; 7 days at 1-2° Centigrade,4.8
same,Count of psychrotrophic microorganisms in sample with 1% Sodium Benzoate solution,[4]; 14 days at 1-2° Centigrade,5.2
same,Count of psychrotrophic microorganisms in sample with 0.1% Sodium Benzoate solution,[4]; [11],4.21
same,Count of psychrotrophic microorganisms in sample with 0.1% Sodium Benzoate solution,[4]; 7 days at 1-2° Centigrade,4.79
same,Count of psychrotrophic microorganisms in sample with 0.1% Sodium Benzoate solution,[4]; 14 days at 1-2° Centigrade,6.17
same,Count of psychrotrophic microorganisms in sample with 0.1% Sodium Benzoate solution,[4]; 18 days at 1-2° Centigrade,8.09
same,No Mold,mold [5],no evidence of mold
same,Iron count,[6],reduced to normal levels
same,Conductivity of 10% solution with coating additive compared with 10% solution without,[7],substantially the same
same,Growth Stunned,[8]; four days after watering,remains of the flowers were now brown and only a few brown leaves remained on the branches
same,Appearance of plants,[8]; two days after watering,flowers were no longer red and instead appeared pink and white and the leaves were drooping and were a much lighter shade of green
same,Growth Stunned,[9],shriveled and dried up
same,Growth Stunned,grass,appeared straw like and there was no longer any green appearing
same,Growth Stunned,[10],weathered and dried up
